# In PMC9241942 (Microbiology Spectrum, 2022):
# Assays:
# [1] = Fecal vancomycin levels in original clinical stool samples of healthy volunteers, HPLC-PDA at 205 nm; assay type: in vivo, human; conditions: for Vancomycin concn, Aliquot 3 / Vancomycin concn, Aliquot 2: original stool
# Experimental: (§1) An aliquot of stool and 1 mL of extraction solvent (acetonitrile and water, 10:90 [vol/vol], 0.1% TFA) was added into 2-mL centrifuge tube and shaken (Vortex-Genie 2 Shaker, Scientific Industries, USA) for 10 s, ultrasonicated for 5 min (Multool ultrasonic cleaner, Model: TH-030A), and centrifuged at 10,000 g for 3 min (Centrifuge 5804 R, Eppendorf). The supernatant was collected and diluted by 10-fold using the extraction solvent and was stored at −80°C prior to HPLC analysis.
# (§2) The mobile phase consisted of a mixture of acetonitrile and water, (10:90 [v:v], 0.1% TFA). The flow rate and the temperature of column oven were set at 0.3 mL/min and 40°C, respectively.
# (§3) Differences in concentrations were compared by RSD.
# [2] = Comparison with orthophosphoric acid-based extraction method (Berthoin et al. 2009), total fecal vancomycin by HPLC; assay type: in vivo, human
# Experimental: Briefly, six samples were chosen with two aliquots were prepared for each sample. The aliquots were mixed with 971 μL of water and 29 μL of 85% orthophosphoric acid according to the composition of orthophosphoric acid-based extraction solvent developed by Berthoin et al. (2009) ([17]).
# [3] = cited from earlier work
# Text: The goal of the human microbiome project (HMP) is to characterize the human microbiome and analyze its role in health and disease ([1]). The HMP has advanced science on the systems biology of the gut microbiome, the most diverse and abundant microbiome in the human body. By far, the largest contributor to immediate changes in the human gut microbiome are broad spectrum antimicrobials that are excreted via the gastrointestinal tract. To be able to properly study the effect of antimicrobials on the gut microbiome, pharmacokinetic studies using validated assays in the correct biologic matrix will ... || During the phase I clinical trial mentioned above, the pharmacokinetics of ibezapolstat was evaluated using a commercial laboratory. They required the entire stool in order to homogenize the sample for accurate pharmacokinetics results as the heterogeneity of antibiotics in stool samples has not been studied. This differs from blood, urine, or other matrices in which an almost constant supply is present. However, as bowl movements only occur once per day or less, use of an entire sample for pharmacokinetic analyses excludes other microbiome evaluations from that particular day or time-period. ...
# [4] = Fecal vancomycin levels in lyophilized clinical stool samples, HPLC, with water correction; assay type: in vivo, human
# Experimental: as §1, §2, §3
# [5] = Vancomycin stability in clinical stool samples over time (inter-day); assay type: in vitro ADME, human; conditions: for Day 0, vancomycin concn: first assay; for Day 0, vancomycin concn / Day 48, vancomycin concn: Mean ± SD, identical aliquots n = 3, SD; for Day 48, vancomycin concn: second assay after storage
# Experimental: as §1, §2, §3
# [6] = cited from earlier work; remark: listed apart in the source
# Text: The goal of the human microbiome project (HMP) is to characterize the human microbiome and analyze its role in health and disease ([1]). The HMP has advanced science on the systems biology of the gut microbiome, the most diverse and abundant microbiome in the human body. By far, the largest contributor to immediate changes in the human gut microbiome are broad spectrum antimicrobials that are excreted via the gastrointestinal tract. […] Moreover, the quantitative range of our new method ( ...
smiles,measurement,setting,value
CN[C@H](CC(C)C)C(=O)N[C@H]1C(=O)N[C@@H](CC(N)=O)C(=O)N[C@H]2C(=O)N[C@H]3C(=O)N[C@H](C(=O)N[C@H](C(=O)O)c4cc(O)cc(O)c4-c4cc3ccc4O)[C@H](O)c3ccc(c(Cl)c3)Oc3cc2cc(c3O[C@@H]2O[C@H](CO)[C@@H](O)[C@H](O)[C@H]2O[C@H]2C[C@](C)(N)[C@H](O)[C@H](C)O2)Oc2ccc(cc2Cl)[C@H]1O [vancomycin],persistence of vancomycin in stool after end of dosing (in words),"[1]; healthy volunteers, oral 125 mg 4 times daily for 10 days",persists for several days following the end of the 10-day dosing regimen
same,vancomycin concentration in the diluted fecal extract solution,"[1]; original clinical sample 9, fecal extract diluted by 10-fold, 205 nm",20.1 µg/mL
same,"Vancomycin concn, Aliquot 3","[1]; sample 5, subject H, day 5, oral 125 mg 4 times daily for 10 days, wet wt 33.0 mg",259 (33.0) μg/g
same,"Vancomycin concn, Aliquot 2","[1]; sample 5, subject H, day 5, oral 125 mg 4 times daily for 10 days, wet wt 52.9 mg",259 (52.9) μg/g
same,"Vancomycin concn, Aliquot 2","[1]; sample 6, subject E, day 8, oral 125 mg 4 times daily for 10 days, wet wt 40.7 mg",2033 (40.7) μg/g
same,"Vancomycin concn, Aliquot 3","[1]; sample 6, subject E, day 8, oral 125 mg 4 times daily for 10 days, wet wt 106.5 mg",1660 (106.5) μg/g
same,"Vancomycin concn, Aliquot 3","[1]; sample 7, subject F, day 8, oral 125 mg 4 times daily for 10 days, wet wt 48.1 mg",2057 (48.1) μg/g
same,"Vancomycin concn, Aliquot 2","[1]; sample 7, subject F, day 8, oral 125 mg 4 times daily for 10 days, wet wt 55.7 mg",1877 (55.7) μg/g
same,"Vancomycin concn, Aliquot 3","[1]; sample 8, subject E, day 9, oral 125 mg 4 times daily for 10 days, wet wt 61.5 mg",1920 (61.5) μg/g
same,"Vancomycin concn, Aliquot 2","[1]; sample 8, subject E, day 9, oral 125 mg 4 times daily for 10 days, wet wt 91.7 mg",1868 (91.7) μg/g
same,"Vancomycin concn, Aliquot 2","[1]; sample 9, subject F, day 9, oral 125 mg 4 times daily for 10 days, wet wt 68.4 mg",1964 (68.4) μg/g
same,"Vancomycin concn, Aliquot 3","[1]; sample 9, subject F, day 9, oral 125 mg 4 times daily for 10 days, wet wt 80.2 mg",1973 (80.2) μg/g
same,"Vancomycin concn, Aliquot 2","[1]; sample 10, subject D, day 10, oral 125 mg 4 times daily for 10 days, wet wt 34.7 mg",1947 (34.7) μg/g
same,"Vancomycin concn, Aliquot 3","[1]; sample 10, subject D, day 10, oral 125 mg 4 times daily for 10 days, wet wt 57.0 mg",1775 (57.0) μg/g
same,"Vancomycin concn, Aliquot 2","[1]; sample 11, subject D, day 11, oral 125 mg 4 times daily for 10 days, wet wt 62.7 mg",1801 (62.7) μg/g
same,"Vancomycin concn, Aliquot 3","[1]; sample 11, subject D, day 11, oral 125 mg 4 times daily for 10 days, wet wt 64.0 mg",1891 (64.0) μg/g
same,"Vancomycin concn, Aliquot 2","[1]; sample 12, subject F, day 11, oral 125 mg 4 times daily for 10 days, wet wt 47 mg",1920 (47) μg/g
same,"Vancomycin concn, Aliquot 3","[1]; sample 12, subject F, day 11, oral 125 mg 4 times daily for 10 days, wet wt 54.2 mg",1488 (54.2) μg/g
same,"Vancomycin concn, Aliquot 2","[1]; sample 14, subject F, day 12, oral 125 mg 4 times daily for 10 days, wet wt 60.8 mg",1162 (60.8) μg/g
same,"Vancomycin concn, Aliquot 3","[1]; sample 14, subject F, day 12, oral 125 mg 4 times daily for 10 days, wet wt 74.6 mg",1070 (74.6) μg/g
same,"Vancomycin concn, Aliquot 3","[1]; sample 15, subject D, day 12, oral 125 mg 4 times daily for 10 days, wet wt 59.4 mg",1200 (59.4) μg/g
same,"Vancomycin concn, Aliquot 2","[1]; sample 15, subject D, day 12, oral 125 mg 4 times daily for 10 days, wet wt 90.1 mg",1111 (90.1) μg/g
same,"Fecal vancomycin concentration (Mean ± SD), Previous method","[2]; clinical sample 5, two aliquots",267 ± 45 µg/mL
same,"Fecal vancomycin concentration (Mean ± SD), Previous method","[2]; clinical sample 6, two aliquots","2,045±100 µg/ml"
same,"Fecal vancomycin concentration (Mean ± SD), Previous method","[2]; clinical sample 8, two aliquots","2,110±23 µg/ml"
same,"Fecal vancomycin concentration (Mean ± SD), Previous method","[2]; clinical sample 9, two aliquots","2,106±33 µg/ml"
same,"Fecal vancomycin concentration (Mean ± SD), Previous method","[2]; clinical sample 12, two aliquots","1,771±11 µg/ml"
same,"Fecal vancomycin concentration (Mean ± SD), Previous method","[2]; clinical sample 14, two aliquots","1,253±47 µg/ml"
same,water solubility (in words),[3],water-soluble
same,hydrophilicity (in words),"[3]; general statement of the discussion, no reference given",hydrophilic drug
same,"Lyophilized samples, Vanco conc","[4]; sample 6, subject E, day 8, oral 125 mg 4 times daily for 10 days, aliquot 1, wt 31 mg","9,206 μg/g"
same,"Lyophilized samples, Vanco conc","[4]; sample 6, subject E, day 8, oral 125 mg 4 times daily for 10 days, aliquot 2, wt 58.2 mg","10,109 μg/g"
same,"Lyophilized samples, Vanco conc, Mean","[4]; sample 6, subject E, day 8, oral 125 mg 4 times daily for 10 days, mean of 2 aliquots","9,658 μg/g"
same,"Lyophilized samples, Vanco conc","[4]; sample 7, subject F, day 8, oral 125 mg 4 times daily for 10 days, aliquot 1, wt 44.6 mg","8,614 μg/g"
same,"Lyophilized samples, Vanco conc","[4]; sample 7, subject F, day 8, oral 125 mg 4 times daily for 10 days, aliquot 2, wt 28.2 mg","9,367 μg/g"
same,"Lyophilized samples, Vanco conc, Mean","[4]; sample 7, subject F, day 8, oral 125 mg 4 times daily for 10 days, mean of 2 aliquots","8,991 μg/g"
same,"Lyophilized samples, Vanco conc","[4]; sample 8, subject E, day 9, oral 125 mg 4 times daily for 10 days, aliquot 1, wt 28.7 mg","10,116 μg/g"
same,"Lyophilized samples, Vanco conc","[4]; sample 8, subject E, day 9, oral 125 mg 4 times daily for 10 days, aliquot 2, wt 39.4 mg","9,445 μg/g"
same,"Lyophilized samples, Vanco conc, Mean","[4]; sample 8, subject E, day 9, oral 125 mg 4 times daily for 10 days, mean of 2 aliquots","9,781 μg/g"
same,"Lyophilized samples, Vanco conc","[4]; sample 9, subject F, day 9, oral 125 mg 4 times daily for 10 days, aliquot 1, wt 26.7 mg","9,745 μg/g"
same,"Lyophilized samples, Vanco conc","[4]; sample 9, subject F, day 9, oral 125 mg 4 times daily for 10 days, aliquot 2, wt 43.3 mg","8,981 μg/g"
same,"Lyophilized samples, Vanco conc","[4]; sample 9, subject F, day 9, oral 125 mg 4 times daily for 10 days, aliquot 3, wt 60.8 mg","8,935 μg/g"
same,"Lyophilized samples, Vanco conc, Mean","[4]; sample 9, subject F, day 9, oral 125 mg 4 times daily for 10 days, mean of 3 aliquots","9,220 μg/g"
same,"Lyophilized samples, Vanco conc","[4]; sample 10, subject D, day 10, oral 125 mg 4 times daily for 10 days, aliquot 1, wt 41.2 mg","7,501 μg/g"
same,"Lyophilized samples, Vanco conc","[4]; sample 10, subject D, day 10, oral 125 mg 4 times daily for 10 days, aliquot 2, wt 75.3 mg","6,911 μg/g"
same,"Lyophilized samples, Vanco conc, Mean","[4]; sample 10, subject D, day 10, oral 125 mg 4 times daily for 10 days, mean of 2 aliquots","7,206 μg/g"
same,"Lyophilized samples, Vanco conc","[4]; sample 11, subject D, day 11, oral 125 mg 4 times daily for 10 days, aliquot 1, wt 51.9 mg","7,688 μg/g"
same,"Lyophilized samples, Vanco conc","[4]; sample 11, subject D, day 11, oral 125 mg 4 times daily for 10 days, aliquot 2, wt 36.8 mg","8,166 μg/g"
same,"Lyophilized samples, Vanco conc","[4]; sample 11, subject D, day 11, oral 125 mg 4 times daily for 10 days, aliquot 3, wt 30 mg","6,457 μg/g"
same,"Lyophilized samples, Vanco conc, Mean","[4]; sample 11, subject D, day 11, oral 125 mg 4 times daily for 10 days, mean of 3 aliquots","7,437 μg/g"
same,"Lyophilized samples, Vanco conc","[4]; sample 12, subject F, day 11, oral 125 mg 4 times daily for 10 days, aliquot 1, wt 12.7 mg","9,026 μg/g"
same,"Lyophilized samples, Vanco conc","[4]; sample 12, subject F, day 11, oral 125 mg 4 times daily for 10 days, aliquot 2, wt 32.6 mg","8,563 μg/g"
same,"Lyophilized samples, Vanco conc","[4]; sample 12, subject F, day 11, oral 125 mg 4 times daily for 10 days, aliquot 3, wt 49.2 mg","6,962 μg/g"
same,"Lyophilized samples, Vanco conc, Mean","[4]; sample 12, subject F, day 11, oral 125 mg 4 times daily for 10 days, mean of 3 aliquots","8,184 μg/g"
same,"Lyophilized samples, Vanco conc","[4]; sample 14, subject F, day 12, oral 125 mg 4 times daily for 10 days, aliquot 1, wt 19 mg","6,748 μg/g"
same,"Lyophilized samples, Vanco conc","[4]; sample 14, subject F, day 12, oral 125 mg 4 times daily for 10 days, aliquot 2, wt 37.1 mg","5,810 μg/g"
same,"Lyophilized samples, Vanco conc","[4]; sample 14, subject F, day 12, oral 125 mg 4 times daily for 10 days, aliquot 3, wt 56.2 mg","5,803 μg/g"
same,"Lyophilized samples, Vanco conc, Mean","[4]; sample 14, subject F, day 12, oral 125 mg 4 times daily for 10 days, mean of 3 aliquots","6,120 μg/g"
same,"Lyophilized samples, Vanco conc","[4]; sample 15, subject D, day 12, oral 125 mg 4 times daily for 10 days, aliquot 1, wt 41.6 mg","5,058 μg/g"
same,"Lyophilized samples, Vanco conc","[4]; sample 15, subject D, day 12, oral 125 mg 4 times daily for 10 days, aliquot 2, wt 38.5 mg","4,941 μg/g"
same,"Lyophilized samples, Vanco conc","[4]; sample 15, subject D, day 12, oral 125 mg 4 times daily for 10 days, aliquot 3, wt 44.1 mg","4,921 μg/g"
same,"Lyophilized samples, Vanco conc, Mean","[4]; sample 15, subject D, day 12, oral 125 mg 4 times daily for 10 days, mean of 3 aliquots","4,973 μg/g"
same,"Day 0, vancomycin concn",[5]; clinical stool sample 5,269 ± 3 µg/g
same,"Day 48, vancomycin concn",[5]; clinical stool sample 5,259 ± 14 µg/g
same,"Day 0, vancomycin concn",[5]; clinical stool sample 9,"1,897 ± 7 μg/g"
same,"Day 48, vancomycin concn",[5]; clinical stool sample 9,"1,905 ± 12 μg/g"
same,"Day 0, vancomycin concn",[5]; clinical stool sample 14,"1,211 ± 8 μg/g"
same,"Day 48, vancomycin concn",[5]; clinical stool sample 14,"1,220 ± 11 μg/g"
same,stability of vancomycin concentrations in stool over time,"[5]; clinical stool samples, up to 49 days studied",stable over time up to 49 days
same,typical fecal vancomycin level after standard oral vancomycin administration,[6],> 100 µg/mL
same,absorption from the human gastrointestinal (GI) tract (in words),"[6]; oral, mainly excreted into the stool",absorbed minimally
